According to ChEMBL document CHEMBL6103546, “TRPM8 and TRPA1 ideal targets for treating cold-induced pain” (Eur J Med Chem, 2025):
One block for each compound: values may come before it.

How the values were obtained:
[1] = target: Transient receptor potential cation channel subfamily M member 8 (Rattus norvegicus, UniProt Q8R455); test: Antagonist activity at rat TRPM8 transfected in HEK293T cells assessed as reduction in intracellular Ca2+ level Fluo-4 dye based fluorescence assay; type: cell-based
Chain of Transient receptor potential cation channel subfamily M member 8 (Rattus norvegicus, UniProt Q8R455) (Q8R455 whole entry): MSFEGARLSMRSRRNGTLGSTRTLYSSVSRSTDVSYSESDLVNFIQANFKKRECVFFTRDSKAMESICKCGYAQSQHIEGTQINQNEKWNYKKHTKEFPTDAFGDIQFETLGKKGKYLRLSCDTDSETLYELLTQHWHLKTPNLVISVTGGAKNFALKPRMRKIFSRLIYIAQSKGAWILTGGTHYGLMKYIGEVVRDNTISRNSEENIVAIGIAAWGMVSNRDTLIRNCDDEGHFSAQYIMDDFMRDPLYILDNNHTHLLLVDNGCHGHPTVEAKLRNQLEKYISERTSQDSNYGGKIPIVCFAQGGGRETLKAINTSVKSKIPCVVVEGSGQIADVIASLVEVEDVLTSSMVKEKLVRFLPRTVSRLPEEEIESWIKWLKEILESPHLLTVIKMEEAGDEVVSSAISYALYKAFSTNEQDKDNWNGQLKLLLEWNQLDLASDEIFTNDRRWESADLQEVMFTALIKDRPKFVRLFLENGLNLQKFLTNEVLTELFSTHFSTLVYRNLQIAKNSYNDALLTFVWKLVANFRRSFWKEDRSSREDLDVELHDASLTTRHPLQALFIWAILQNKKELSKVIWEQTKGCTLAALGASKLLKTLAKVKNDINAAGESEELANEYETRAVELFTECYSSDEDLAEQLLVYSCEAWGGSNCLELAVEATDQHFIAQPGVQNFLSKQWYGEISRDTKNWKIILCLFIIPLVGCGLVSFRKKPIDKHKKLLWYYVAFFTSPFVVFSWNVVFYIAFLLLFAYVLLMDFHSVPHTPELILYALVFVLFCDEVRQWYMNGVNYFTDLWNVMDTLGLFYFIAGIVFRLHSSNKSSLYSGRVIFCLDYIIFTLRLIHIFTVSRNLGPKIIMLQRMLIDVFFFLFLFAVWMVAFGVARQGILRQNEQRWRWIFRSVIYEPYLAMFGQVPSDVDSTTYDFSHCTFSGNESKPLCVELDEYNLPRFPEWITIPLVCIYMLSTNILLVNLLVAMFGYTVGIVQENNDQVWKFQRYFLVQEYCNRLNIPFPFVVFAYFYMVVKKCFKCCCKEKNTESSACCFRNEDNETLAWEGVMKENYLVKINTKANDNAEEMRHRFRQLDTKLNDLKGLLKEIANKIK

[2] = target: T1, Transient receptor potential cation channel subfamily M member 8 (Homo sapiens, UniProt Q7Z2W7); test: Antagonist activity at human TRPM8 transfected in HEK293T cells assessed as inhibition of intracellular Ca2+ level by Fluo-4 dye based fluorescence assay; type: cell-based
T1 sequence (Q7Z2W7 whole entry): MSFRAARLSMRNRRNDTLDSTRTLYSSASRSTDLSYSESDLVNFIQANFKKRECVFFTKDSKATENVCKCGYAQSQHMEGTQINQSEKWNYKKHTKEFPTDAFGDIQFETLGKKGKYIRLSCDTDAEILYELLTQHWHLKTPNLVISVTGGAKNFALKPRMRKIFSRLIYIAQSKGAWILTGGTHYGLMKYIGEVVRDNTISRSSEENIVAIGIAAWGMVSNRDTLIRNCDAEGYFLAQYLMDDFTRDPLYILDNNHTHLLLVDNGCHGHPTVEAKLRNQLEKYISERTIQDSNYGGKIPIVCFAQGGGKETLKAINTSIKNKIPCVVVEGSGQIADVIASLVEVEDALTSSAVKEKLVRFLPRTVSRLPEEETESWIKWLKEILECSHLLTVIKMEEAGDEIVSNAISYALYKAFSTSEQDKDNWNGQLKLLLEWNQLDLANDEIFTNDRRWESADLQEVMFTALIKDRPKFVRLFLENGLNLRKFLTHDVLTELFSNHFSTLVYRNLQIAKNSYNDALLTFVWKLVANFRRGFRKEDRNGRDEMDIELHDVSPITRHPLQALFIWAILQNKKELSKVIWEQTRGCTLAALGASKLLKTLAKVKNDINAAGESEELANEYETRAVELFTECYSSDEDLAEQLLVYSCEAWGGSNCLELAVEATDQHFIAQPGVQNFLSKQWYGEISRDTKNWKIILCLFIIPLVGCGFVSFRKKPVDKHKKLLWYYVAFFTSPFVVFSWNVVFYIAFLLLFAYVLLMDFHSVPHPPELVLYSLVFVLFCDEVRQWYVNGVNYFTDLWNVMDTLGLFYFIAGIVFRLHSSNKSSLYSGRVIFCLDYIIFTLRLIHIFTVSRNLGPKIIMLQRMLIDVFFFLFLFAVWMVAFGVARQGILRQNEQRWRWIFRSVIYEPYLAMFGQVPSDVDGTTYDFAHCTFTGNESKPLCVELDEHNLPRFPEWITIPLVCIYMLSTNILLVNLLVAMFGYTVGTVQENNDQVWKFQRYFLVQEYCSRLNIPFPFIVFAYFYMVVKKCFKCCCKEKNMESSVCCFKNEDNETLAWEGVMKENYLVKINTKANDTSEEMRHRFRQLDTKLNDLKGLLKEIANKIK

[3] = target: T1, Transient receptor potential cation channel subfamily M member 8; test: Antagonist activity at human recombinant TRPM8 stably transfected in HEK293 cells assessed as inhibition of intracellular Ca2+ flux incubated for 60 mins by Fluo-4 dye based fluorescence assay; type: cell-based
[4] = target: T1, Transient receptor potential cation channel subfamily M member 8; test: Antagonist activity at human TRPM8 expressed in HEK293 cells; type: cell-based
[5] = target: T1, Transient receptor potential cation channel subfamily M member 8; test: Antagonist activity at TRPM8 (unknown origin)
[6] = target: T2, Transient receptor potential cation channel subfamily A member 1 (Homo sapiens, UniProt O75762); test: Antagonist activity at TRPA1 (unknown origin) expressed in HEK293 cells assessed as inhibition of AITC-induced intracellular Ca2+ flux by fluorescence dye based assay; type: cell-based
T2 sequence (O75762 whole entry): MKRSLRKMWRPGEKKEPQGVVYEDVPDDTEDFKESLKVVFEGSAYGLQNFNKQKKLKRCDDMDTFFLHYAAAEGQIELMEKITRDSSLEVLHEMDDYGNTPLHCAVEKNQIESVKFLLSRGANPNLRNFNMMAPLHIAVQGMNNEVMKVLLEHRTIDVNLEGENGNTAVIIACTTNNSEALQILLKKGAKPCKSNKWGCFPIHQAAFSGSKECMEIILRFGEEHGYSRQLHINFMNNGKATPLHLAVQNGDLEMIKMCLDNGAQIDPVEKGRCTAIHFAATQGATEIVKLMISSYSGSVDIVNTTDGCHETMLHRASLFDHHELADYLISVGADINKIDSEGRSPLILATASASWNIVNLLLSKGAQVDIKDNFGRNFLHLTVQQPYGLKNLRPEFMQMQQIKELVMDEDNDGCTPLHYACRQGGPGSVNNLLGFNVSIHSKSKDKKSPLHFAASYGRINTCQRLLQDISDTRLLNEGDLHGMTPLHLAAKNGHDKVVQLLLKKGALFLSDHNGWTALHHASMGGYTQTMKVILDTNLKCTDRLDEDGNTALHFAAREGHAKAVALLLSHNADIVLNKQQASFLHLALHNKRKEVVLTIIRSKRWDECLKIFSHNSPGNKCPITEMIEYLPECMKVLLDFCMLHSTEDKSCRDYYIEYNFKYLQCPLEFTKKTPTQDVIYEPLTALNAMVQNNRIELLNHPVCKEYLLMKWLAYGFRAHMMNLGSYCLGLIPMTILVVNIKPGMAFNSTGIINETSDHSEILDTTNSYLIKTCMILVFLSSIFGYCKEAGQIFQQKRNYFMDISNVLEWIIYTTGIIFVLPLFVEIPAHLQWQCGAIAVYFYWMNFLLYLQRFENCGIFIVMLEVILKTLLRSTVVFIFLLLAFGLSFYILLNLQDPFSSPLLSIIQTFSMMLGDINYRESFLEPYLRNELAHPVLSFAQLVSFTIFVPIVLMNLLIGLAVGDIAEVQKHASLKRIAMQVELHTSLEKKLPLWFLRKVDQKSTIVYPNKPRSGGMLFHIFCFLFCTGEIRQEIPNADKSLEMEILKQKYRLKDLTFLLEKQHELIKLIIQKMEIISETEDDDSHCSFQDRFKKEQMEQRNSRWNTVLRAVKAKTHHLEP

[7] = target: T1, Transient receptor potential cation channel subfamily M member 8; test: Agonist activity at TRPM8 (unknown origin)
[8] = target: T1, Transient receptor potential cation channel subfamily M member 8; test: Antagonist activity at TRPM8 (unknown origin) in HEK293T cells; type: cell-based
[9] = target: T2, Transient receptor potential cation channel subfamily A member 1; test: […] at human TRPA1 expressed in HEK293T cells assessed as inhibition of AITC-induced current by whole cell patch clamp analysis; type: cell-based
[10] = target: T2, Transient receptor potential cation channel subfamily A member 1; test: Antagonist activity at TRPA1 (unknown origin) transfected in HEK293F cells assessed as reduction in intracellular Ca2+ by fluorescence based assay; type: cell-based
[11] = target: T2, Transient receptor potential cation channel subfamily A member 1; test: Antagonist activity at recombinant TRPA1 (unknown origin) expressed in T-REx-293 cells assessed as inhibition of AITC-induced intracellular Ca2+ flux by patch clamp assay; type: cell-based
[12] = target: T2, Transient receptor potential cation channel subfamily A member 1; test: Antagonist activity at human TRPA1 expressed in CHO cells assessed as inhibition of AITC-induced intracellular Ca2+ flux by fluorescence dye based assay; type: cell-based

- IC50 [1]: 22.4 nM
- IC50 [2]: 25.3 nM
Compound: O=C(N[C@H](Cn1nccn1)C(F)(F)CO)c1cccc(F)c1-c1cc(-c2ccc(F)cc2)[nH]n1

- EC50 [9]: 40 nM
Compound: C[n+]1cc2c3c(ccc2c2ccc4cc5c(cc4c21)OCO5)OCO3

- EC50 [10]: 45 nM
Compound: COc1ccc(OC)c(NC(=O)c2nnn(Cc3ccc(Br)cc3F)c2N)c1

- IC50 [11]: 130 nM
Compound: CCN(c1cccc(C)c1)S(=O)(=O)c1nnc(NC(=O)c2ccccc2)s1

- IC50 [12]: 1.7 nM
Compound: C[C@H]1[C@H](F)C[C@@H](C(=O)NCc2cc(-c3cnc(C(F)(F)F)nc3)ncc2C(F)(F)F)N1S(=O)(=O)c1ccc(F)cc1

More lines, now with the values behind:

Compound: C[C@H]1C(=O)N(C[C@@H](Cc2ccccc2)N(Cc2ccccc2)Cc2ccccc2)[C@@]1(Cc1ccccc1)C(=O)OCc1ccccc1
- IC50 [3]: 20 nM
- IC50 [4]: 50 nM
- IC50 [5]: 20 nM

Compound: C[C@@H](N)[C@@H](O)CCCCCCCCCCCCCCCCCCCCCCCC[C@H](O)[C@@H](C)N
- EC50 [6]: 2600 nM

Compound: O=C1NC(c2cccc([N+](=O)[O-])c2)=CCN1c1ccccc1O [ICILLIN]
- EC50 [7]: 5 nM

Compound: c1cc2c(cc1[C@H]1OC[C@H]3[C@@H]1CO[C@@H]3c1ccc3c(c1)OCO3)OCO2 [SESAMIN]
- IC50 [8]: 9780 nM

Compound: C[C@@H]1C(=O)N(C[C@H](Cc2ccccc2)N(Cc2ccccc2)Cc2ccccc2)[C@]1(Cc1ccccc1)C(=O)OCc1ccccc1
- IC50 [5]: 3100 nM

Compound: C[C@@H]1C(=O)N(C[C@@H](Cc2ccccc2)N(Cc2ccccc2)Cc2ccccc2)[C@]1(Cc1ccccc1)C(=O)OCc1ccccc1
- IC50 [3]: 300 nM
- IC50 [5]: 300 nM

Compound: C[C@H]1C(=O)N(C[C@H](Cc2ccccc2)N(Cc2ccccc2)Cc2ccccc2)[C@@]1(Cc1ccccc1)C(=O)OCc1ccccc1
- IC50 [5]: 700 nM
